Measured values from patent publication US6797714B2, “Carboxyl substituted chroman derivatives useful as beta 3 adrenoreceptor agonists” (Bayer Pharmaceuticals Corporation, priority 1997, dated 2004).

| SMILES | melting point [°C] |
| --- | --- |
| CCOC(=O)CCc1ccc2c(c1)CCC(CNC[C@H](O)c1cccc(Cl)c1)O2.Cl (some centres unmarked) | 189 to 190 |
| CCOC(=O)c1ccc2c(c1)CCC(CNC[C@H](O)c1cccc(Cl)c1)O2.Cl (some centres unmarked) | 234 to 235 |
